In the first test the test system is KASUMI-10. In words: selective drug sensitivity score (sDSS, relative to normal bone marrow) (sDSS (score)); higher = more potent and effective on the cell line relative to normal bone marrow cells. To be noted: 72 h.
With `C[C@H]1C[C@@H]2[C@H]([C@@H](O)C[C@@]3(C)[C@H]2CC[C@]3(O)C(=O)CO)[C@@]2(C)C=CC(=O)C=C12` [Methylprednisolone] (top concentration 10000 nM), the “selective drug sensitivity score” value was -2.3.
Turning to `FC(F)(F)c1ccc(/C=C/c2nc(COc3ccc(CCCCn4ccnn4)cc3)co2)cc1` [Mubritinib] (top concentration 1000 nM), the “selective drug sensitivity score” value is -2.24.
On the same count and under the same terms, the figure for `COc1cc2c(cc1OC(C)C)[C@H](c1ccc(Cl)cc1)N(c1ccc(N(C)C[C@H]3CC[C@H](N4CCN(C)C(=O)C4)CC3)cc1)C(=O)C2` [NVP-CGM097] (top concentration 25000 nM) is 11.7; for `CCOc1cc2ncc(C#N)c(Nc3ccc(OCc4ccccn4)c(Cl)c3)c2cc1NC(=O)/C=C/CN(C)C` [Neratinib] (top concentration 1000 nM) it is 3.68; for `COc1ncc(-c2ccc3nccc(-c4ccnnc4)c3c2)cc1NS(=O)(=O)c1ccc(F)cc1F` [Omipalisib] (top concentration 1000 nM) it is 1.6.
Same read-out and setting: next, `CN1CCN(c2cc(C(=O)Nc3ccc4c(c3)-c3c(c(C(N)=O)nn3-c3ccc(F)cc3)CC4)c(Cl)cn2)CC1` [PHA-408] (top concentration 10000 nM): 0.18; `OC[C@H]1O[C@@H](n2cnc3c2N=CNC[C@H]3O)C[C@@H]1O` [Pentostatin] (top concentration 10000 nM): -0.44; `CC(C)N(C[C@H]1O[C@@H](n2cnc3c(N)ncnc32)[C@H](O)[C@@H]1O)[C@H]1C[C@@H](CCc2nc3cc(C(C)(C)C)ccc3[nH]2)C1` [Pinometostat] (top concentration 1000 nM): 0.
On the same count and under the same terms, next, `Cc1ccc(=O)n(-c2ccccc2)c1` [Pirfenidone] (top concentration 10000 nM): 0.

The test system of the next test is KOPN-8. The description is as above. Particulars: 72 h.
Take `CC(=O)[C@]1(O)Cc2c(O)c3c(c(O)c2[C@@H](O[C@H]2C[C@H](N)[C@H](O)[C@H](C)O2)C1)C(=O)c1ccccc1C3=O` [Idarubicin] (top concentration 1000 nM): the “selective drug sensitivity score” value was 8.74.
The same measure, in the same setting: next, `COc1cc2nccc(Oc3ccc(NC(=O)NC4CC4)c(Cl)c3)c2cc1C(N)=O` [Lenvatinib] (top concentration 2500 nM): 0.86; `N#Cc1ccc(C(c2ccc(C#N)cc2)n2cncn2)cc1` [Letrozole] (top concentration 10000 nM): -0.04.
`CCNCCS(=O)(=O)NC[C@@]1(c2ccccc2)SC(NC(=O)C(C)(C)C)=NN1C(=O)C(C)(C)C` [Litronesib] (top concentration 1000 nM): the “selective drug sensitivity score” value was 20.6.
`CC[C@H](C)C(=O)O[C@H]1C[C@@H](C)C=C2C=C[C@H](C)[C@H](CC[C@@H]3C[C@@H](O)CC(=O)O3)[C@H]21` [Lovastatin] (top concentration 10000 nM): the “selective drug sensitivity score” value turned out to be 4.3.
For `Cn1cc(-c2cnn3c(N)c(Br)c([C@@H]4CCCNC4)nc23)cn1` [MK-8776] (top concentration 2500 nM), the “selective drug sensitivity score” value is -0.46.
As for `Cc1cnc(-c2ccccc2C(C)C)nc1NCc1ccc(-n2ccnn2)cc1` [ML323] (top concentration 10000 nM), the “selective drug sensitivity score” value was determined as 1.14.
Consider `O=C(CCNC(=O)c1ccc(OC(F)(F)F)cc1)N[C@@H]1CCCc2ccccc21` [ML390] (top concentration 50000 nM), for which the “selective drug sensitivity score” value is 22.3.
As for `CN(C)C(=N)NC(=N)N` [Metformin] (top concentration 100000 nM), the “selective drug sensitivity score” value is -0.02.
With `C[C@H]1C[C@@H]2[C@H]([C@@H](O)C[C@@]3(C)[C@H]2CC[C@]3(O)C(=O)CO)[C@@]2(C)C=CC(=O)C=C12` [Methylprednisolone] (top concentration 10000 nM), the “selective drug sensitivity score” value came to 21.1.
With `FC(F)(F)c1ccc(/C=C/c2nc(COc3ccc(CCCCn4ccnn4)cc3)co2)cc1` [Mubritinib] (top concentration 1000 nM), the “selective drug sensitivity score” value is 7.76.
Still for that read-out and setting: next, `COc1cc2c(cc1OC(C)C)[C@H](c1ccc(Cl)cc1)N(c1ccc(N(C)C[C@H]3CC[C@H](N4CCN(C)C(=O)C4)CC3)cc1)C(=O)C2` [NVP-CGM097] (top concentration 25000 nM): 10.4; `CCOc1cc2ncc(C#N)c(Nc3ccc(OCc4ccccn4)c(Cl)c3)c2cc1NC(=O)/C=C/CN(C)C` [Neratinib] (top concentration 1000 nM): 2.28; `COc1ncc(-c2ccc3nccc(-c4ccnnc4)c3c2)cc1NS(=O)(=O)c1ccc(F)cc1F` [Omipalisib] (top concentration 1000 nM): 15.1.
Same read-out and setting: the figure for `CN1CCN(c2cc(C(=O)Nc3ccc4c(c3)-c3c(c(C(N)=O)nn3-c3ccc(F)cc3)CC4)c(Cl)cn2)CC1` [PHA-408] (top concentration 10000 nM) is 3.88; for `OC[C@H]1O[C@@H](n2cnc3c2N=CNC[C@H]3O)C[C@@H]1O` [Pentostatin] (top concentration 10000 nM) it is -0.14; for `CC(C)N(C[C@H]1O[C@@H](n2cnc3c(N)ncnc32)[C@H](O)[C@@H]1O)[C@H]1C[C@@H](CCc2nc3cc(C(C)(C)C)ccc3[nH]2)C1` [Pinometostat] (top concentration 1000 nM) it is 0.
The same measure, in the same setting: the figure for `Cc1ccc(=O)n(-c2ccccc2)c1` [Pirfenidone] (top concentration 10000 nM) is 0.

The test system of a further test is MHH-CALL-3. Described as above. Particulars: 72 h.
With `CC(=O)[C@]1(O)Cc2c(O)c3c(c(O)c2[C@@H](O[C@H]2C[C@H](N)[C@H](O)[C@H](C)O2)C1)C(=O)c1ccccc1C3=O` [Idarubicin] (top concentration 1000 nM), the “selective drug sensitivity score” value is 14.6.
On the same count and under the same terms, the figure for `COc1cc2nccc(Oc3ccc(NC(=O)NC4CC4)c(Cl)c3)c2cc1C(N)=O` [Lenvatinib] (top concentration 2500 nM) is -0.24; for `N#Cc1ccc(C(c2ccc(C#N)cc2)n2cncn2)cc1` [Letrozole] (top concentration 10000 nM) it is -0.04.
With `CCNCCS(=O)(=O)NC[C@@]1(c2ccccc2)SC(NC(=O)C(C)(C)C)=NN1C(=O)C(C)(C)C` [Litronesib] (top concentration 1000 nM), the “selective drug sensitivity score” value is 7.44.
Still for that read-out and setting: next, `CC[C@H](C)C(=O)O[C@H]1C[C@@H](C)C=C2C=C[C@H](C)[C@H](CC[C@@H]3C[C@@H](O)CC(=O)O3)[C@H]21` [Lovastatin] (top concentration 10000 nM): 8.4; `Cn1cc(-c2cnn3c(N)c(Br)c([C@@H]4CCCNC4)nc23)cn1` [MK-8776] (top concentration 2500 nM): 0.04; `Cc1cnc(-c2ccccc2C(C)C)nc1NCc1ccc(-n2ccnn2)cc1` [ML323] (top concentration 10000 nM): -0.36.
The same measure, in the same setting: the figure for `O=C(CCNC(=O)c1ccc(OC(F)(F)F)cc1)N[C@@H]1CCCc2ccccc21` [ML390] (top concentration 50000 nM) is -1.2.
With `CN(C)C(=N)NC(=N)N` [Metformin] (top concentration 100000 nM), the “selective drug sensitivity score” value is -0.02.
With `C[C@H]1C[C@@H]2[C@H]([C@@H](O)C[C@@]3(C)[C@H]2CC[C@]3(O)C(=O)CO)[C@@]2(C)C=CC(=O)C=C12` [Methylprednisolone] (top concentration 10000 nM), the “selective drug sensitivity score” value worked out at 33.2.
Same read-out and setting: the figure for `FC(F)(F)c1ccc(/C=C/c2nc(COc3ccc(CCCCn4ccnn4)cc3)co2)cc1` [Mubritinib] (top concentration 1000 nM) is 3.06; for `COc1cc2c(cc1OC(C)C)[C@H](c1ccc(Cl)cc1)N(c1ccc(N(C)C[C@H]3CC[C@H](N4CCN(C)C(=O)C4)CC3)cc1)C(=O)C2` [NVP-CGM097] (top concentration 25000 nM) it is 13.1.
Same read-out and setting: next, `CCOc1cc2ncc(C#N)c(Nc3ccc(OCc4ccccn4)c(Cl)c3)c2cc1NC(=O)/C=C/CN(C)C` [Neratinib] (top concentration 1000 nM): 4.98; `COc1ncc(-c2ccc3nccc(-c4ccnnc4)c3c2)cc1NS(=O)(=O)c1ccc(F)cc1F` [Omipalisib] (top concentration 1000 nM): 11.4; `CN1CCN(c2cc(C(=O)Nc3ccc4c(c3)-c3c(c(C(N)=O)nn3-c3ccc(F)cc3)CC4)c(Cl)cn2)CC1` [PHA-408] (top concentration 10000 nM): -0.72.
The same measure, in the same setting: next, `OC[C@H]1O[C@@H](n2cnc3c2N=CNC[C@H]3O)C[C@@H]1O` [Pentostatin] (top concentration 10000 nM): -0.44; `CC(C)N(C[C@H]1O[C@@H](n2cnc3c(N)ncnc32)[C@H](O)[C@@H]1O)[C@H]1C[C@@H](CCc2nc3cc(C(C)(C)C)ccc3[nH]2)C1` [Pinometostat] (top concentration 1000 nM): 0; `Cc1ccc(=O)n(-c2ccccc2)c1` [Pirfenidone] (top concentration 10000 nM): 0.

(Values after the supplement of paper PMC8967900.)
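Note: ALL cell lines in 384-well plates, five doses spanning 10,000-fold, each plate scaled between vehicle and 100 µmol/L benzalkonium chloride controls, sDSS an adapted area-under-curve metric.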
